Where only a bound is given, the exact number is not on record here.

The values below come from patent publication US20260078120A1, “SUBSTITUTED PYRIDOPYRIMIDINONES” (MIRATI THERAPEUTICS, INC., priority 2022, published 2026).

Holding throughout (type): cell-based
Assay [1] deals with T47D (PI3Kα H1047R mutant) cells. The experiment in a line: Inhibition of pAKT formation, alphaLISA SureFire Ultra AKT 1/2/3 (pS473), T47D cells. To be noted: Homo sapiens, T47D, T47D (PI3Kα H1047R mutant) cells; inhibition of pAKT (pS473) formation; approximately one hour or 24 hours treatment; read-out: T47D pAKT (H1047R mutant) IC50. An outline of the steps:
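AKT Ser473 phosphorylation was quantified by alphaLISA SureFire Ultra after roughly 1 h or 24 h compound exposure at 37 °C. Cells were T47D (12,000/well in HBSS), treated with a 10-point 1:4 series starting at 10.4 μM. Percent of control used alpelisib background and DMSO reference, and IC50 came from four-parameter logistic fitting.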

For assay [2] the test system is unchanged. The experiment in a line: CellTiter-Glo 2.0 luminescent cell viability assay, 72 hours, T47D cells. To be noted: Homo sapiens, T47D, 72 h, T47D (PI3Kα H1047R mutant) cells, CellTiter-Glo, approximately 72 hours; read-out: T47D (H1047R mutant) Viability IC50. The essentials:
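Viability was measured by CellTiter-Glo 2.0 luminescence after approximately 72 h of compound exposure at 37° C. Plating was 1000 cells per well the day before dosing, with ten 1:4 dilutions from a 10 µM top concentration. Values as percent of vehicle were fitted by variable-slope log(inhibitor) regression to give IC50.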
(Cellular ATP, detected with luciferase, serves as a proxy for viable cell number.)

The test system of assay [3] is SKBR3 (PI3Kα wild type) cells. The experiment in a line: Inhibition of pAKT formation, alphaLISA SureFire Ultra AKT 1/2/3 (pS473), SKBR3 cells. Particulars: Homo sapiens, SK-BR-3; Inhibition of pAKT in SKBR3 (PI3Kα wild type) cells; read-out: SKBR3 (WT) pAKT IC50 (nM) (H1047R mutant) IC50. Here is the method: (§1) The ability of a compound of Formula (I) to inhibit the formation of pAKT was measured using alphaLISA Surefire Ultra AKT 1/2/3 (pS473) Assay Kit (#ALSU-PAKT-B50K) was obtained from Perkin Elmer (Waltham, MA).
(§2) To prepare assay plates for pAKT alphaLISA assays, cells were trypsinized, resuspended in fresh media, and viable cells were counted utilizing trypan blue exclusion. Prior to seeding, cells were washed with PBS and resuspended in HBSS (Gibco, #14025092). T47D (12,000/w), SKBR3(12,000/w), or MKN1(24,000/w) cells were seeded at 12 μl per well in a solid white flat bottom 384 cell culture plate (Perkin Elmer #6007680).
(§3) Immediately after seeding, cells were dosed using an Echo Liquid Handler (Beckman Coulter) with compounds at a […] starting concentration and serially diluted (1:4) for a total of 10 concentrations. […] Cells were incubated with the compounds (solubilized in DMSO) for approximately one hour or 24 hours at 37° C. After one hour (or 24 hours) of treatment, cells were lysed with 3 μl of the 5× lysis buffer (provided and incubated at room temperature for 15 min on a microtiter plate shaker). Once cells were sufficiently lysed, 7.5 μl of the acceptor bead mix (made using the manufacturers recommended dilutions) was added to each well and left on the microtiter plate shaker for 1 min prior to incubating plates at room temperature for one hour, in the absence of light. After one hour of incubation with the acceptor bead mix, 7.5 μl of the donor bead mix (made using the manufacturers recommended dilutions) was added to each well and left on the microtiter plate shaker for 1 min prior to incubating plates at room temperature overnight in the absence of light. Plates were then imaged the following day using a CLARIOstar microplate reader (BMG Labtech, Germany).
(§4) Percent of control values were calculated by subtracting the average signal from the positive control (alpelisib) treated wells from all treated wells (including DMSO control wells) and then divided by the average signal from the vehicle DMSO treated control wells. Percent of vehicle control values were plotted as log (inhibitor) vs. response-Variable slope (four parameters) for curve fitting and IC50 values were determined using XLfit.
(§5) Key: N.D. =not determined
In general terms: Bead proximity is the source of the signal in Alpha formats.

In assay [4] the test system is SKBR3 (PI3Kα wild type) cells. The experiment in a line: CellTiter-Glo 2.0 luminescent cell viability assay, 72 hours, SKBR3 cells. Particulars: Homo sapiens, SK-BR-3, 72 h, SKBR3 (PI3Kα wild type) cells, CellTiter-Glo, approximately 72 hours; read-out: SKBR3 (WT) Viability IC50. An outline of the steps: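 Viability measured via CTG luminescence following roughly 72 hours of compound exposure at 37° C. Dosing used a 10 um starting concentration diluted 1:4 over 10 points; percent-of-vehicle data fitted with a variable-slope four-parameter model for IC50.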

The subject of assay [5] is MKN1 (PI3Kα E545K mutant) cells. In words: Inhibition of pAKT formation, alphaLISA SureFire Ultra AKT 1/2/3 (pS473), MKN1 cells. Particulars: Homo sapiens, MKN-1; MKN1 (PI3Kα E545K mutant) cells; inhibition of pAKT (pS473) formation; approximately one hour or 24 hours treatment; read-out: MKN1 (E545K) pAKT IC50. Here is the method: as §1, §2, §3, §4, §5

`Cc1cc([C@H](C)Nc2ccccc2C(=O)O)c2nc(N3CCC(C)(C)CC3)c(C)c(=O)n2c1` (single isomer, unassigned) [Example 5-2]: the half-maximal inhibitory concentration (IC50) in assay [1] was > 10000 nM; in assay [2], 9030 nM; in assay [3], > 10000 nM; in assay [4], > 10000 nM; in assay [5] it was > 10000 nM.

For the molecule `Cc1cc(C(C)Nc2cccc(O)c2C(=O)O)c2nc(N3CCCCC3)cc(=O)n2c1` (stereo not drawn) [Example 3-4, 2-hydroxy-6-((1-(7-methyl-4-oxo-2-(piperidin-1-yl)-4H-pyrido[1,2-a]pyrimidin-9-yl)ethyl)amino)benzoic acid], the figures for the IC50 in assay [1], in assay [3] and in assay [5] were 2280 nM, > 10000 nM and 8830 nM, respectively.

With `Cc1cc(C(C)Sc2ccccc2C(=O)O)c2nc(N3CCCCC3)cc(=O)n2c1` (stereo not drawn) [Example 3-10, 2-((1-(7-methyl-4-oxo-2-(piperidin-1-yl)-4H-pyrido[1,2-a]pyrimidin-9-yl)ethyl)thio)benzoic acid], the IC50 in assay [1] was 2510 nM; in assay [2], > 10000 nM; in assay [3], > 10000 nM; in assay [4] it was > 10000 nM; in assay [5], > 10000 nM.

As to `Cc1cc(C(C)N(C)c2ccccc2C(=O)O)c2nc(N3CCCCC3)cc(=O)n2c1` (stereo not drawn) [Example 3-21, 2-(methyl(1-(7-methyl-4-oxo-2-(piperidin-1-yl)-4H-pyrido[1,2-a]pyrimidin-9-yl)ethyl)amino)benzoic acid], the IC50 in assay [1] and in assay [5] was > 10000 nM throughout.

For the molecule `Cc1cc(C(C)Nc2ccccc2C(=O)O)c2nc(N3CCC4(CC3)CC4)cc(=O)n2c1` (stereo not drawn) [Example 3-22, 2-((1-(7-methyl-4-oxo-2-(6-azaspiro[2.5]octan-6-yl)-4H-pyrido[1,2-a]pyrimidin-9-yl)ethyl)amino)benzoic acid], the half-maximal inhibitory concentration (IC50) was 70.5 nM in assay [1]; 1640 nM in assay [2]; > 10000 nM in assay [3]; 799 nM in assay [4]; 3250 nM in assay [5].

Take `Cc1cc([C@@H](C)Nc2ccccc2C(=O)O)c2nc(N3CC4(C3)CC(F)(F)C4)c(C#N)c(=O)n2c1` [Example 10-66, (R)-2-((1-(3-cyano-2-(6,6-difluoro-2-azaspiro[3.3]heptan-2-yl)-7-methyl-4-oxo-4H-pyrido[1,2-a]pyrimidin-9-yl)ethyl)amino)benzoic acid]: the concentration for half-maximal inhibition (IC50) in assay [1] was 1370 nM; in assay [2], > 10000 nM; in assay [3] it was > 10000 nM; in assay [4] it was > 10000 nM.

As for `Cc1cc([C@@H](C)Nc2ccc(Cl)nc2C(=O)O)c2nc(N3CCC(F)(F)CC3)c(C#N)c(=O)n2c1` [Example 10-67, (R)-6-chloro-3-((1-(3-cyano-2-(4,4-difluoropiperidin-1-yl)-7-methyl-4-oxo-4H-pyrido[1,2-a]pyrimidin-9-yl)ethyl)amino)picolinic acid], the IC50 is 14.1 nM in assay [1], 304 nM in assay [2], > 10000 nM in assay [3] and > 10000 nM in assay [4].

Turning to `Cc1cc([C@@H](C)Nc2ccccc2C(=O)O)c2nc(N3CCS(=O)(=O)CC3)c(C#N)c(=O)n2c1` [Example 10-68, (R)-2-((1-(3-cyano-2-(1,1-dioxidothiomorpholino)-7-methyl-4-oxo-4H-pyrido[1,2-a]pyrimidin-9-yl)ethyl)amino)benzoic acid], the concentration for half-maximal inhibition (IC50) in assay [1] is 375 nM; in assay [2], > 10000 nM; in assay [3], > 10000 nM; in assay [4], > 10000 nM.

In the case of `Cc1cc([C@@H](C)Nc2ccccc2C(=O)O)c2nc(N3CC4CC(C3)C4(F)F)c(C#N)c(=O)n2c1` [Example 10-69, 2-(((1R)-1-(3-cyano-2-(6,6-difluoro-3-azabicyclo[3.1.1]heptan-3-yl)-7-methyl-4-oxo-4H-pyrido[1,2-a]pyrimidin-9-yl)ethyl)amino)benzoic acid], the half-inhibitory concentration (IC50) is 3.69 nM in assay [1], 165 nM in assay [2], 1800 nM in assay [3] and > 10000 nM in assay [4].

`Cc1cc([C@@H](C)Nc2ccccc2C(=O)O)c2nc(N3CCCCC3)c(C(N)=O)c(=O)n2c1` [Example 10-70, (R)-2-((1-(3-carbamoyl-7-methyl-4-oxo-2-(piperidin-1-yl)-4H-pyrido[1,2-a]pyrimidin-9-yl)ethyl)amino)benzoic acid]: the concentration for half-maximal inhibition (IC50) in assay [1] was > 10000 nM; in assay [2], 4680 nM; in assay [3], > 10000 nM; in assay [4] it was > 10000 nM.

Regarding `Cc1cc([C@@H](C)Nc2ccccc2C(=O)O)c2nc(N3CCCCC3)c(C(F)(F)F)c(=O)n2c1` [Example 10-71, (R)-2-((1-(7-methyl-4-oxo-2-(piperidin-1-yl)-3-(trifluoromethyl)-4H-pyrido[1,2-a]pyrimidin-9-yl)ethyl)amino)benzoic acid], the half-inhibitory concentration (IC50) in assay [1] was > 10000 nM; in assay [2] it was 4890 nM; in assay [3], > 10000 nM; in assay [4] it was > 10000 nM.

In the case of `Cc1cc([C@@H](C)Nc2ccccc2C(=O)O)c2nc(N3CCC(C)(C)CC3)c(C#N)c(=O)n2c1` [Example 10-72, (R)-2-((1-(3-cyano-2-(4,4-dimethylpiperidin-1-yl)-7-methyl-4-oxo-4H-pyrido[1,2-a]pyrimidin-9-yl)ethyl)amino)benzoic acid], the half-inhibitory concentration (IC50) in assay [1] is 1.33 nM; in assay [2], 151 nM; in assay [3] it was 2480 nM; in assay [4] it was > 10000 nM.

`Cc1cc([C@@H](C)Nc2ccccc2C(=O)O)c2nc(N3CCCC3)c(C#N)c(=O)n2c1` [Example 10-73, (R)-2-((1-(3-cyano-7-methyl-4-oxo-2-(pyrrolidin-1-yl)-4H-pyrido[1,2-a]pyrimidin-9-yl)ethyl)amino)benzoic acid]: the 50% inhibitory concentration (IC50) in assay [1] was 3.29 nM; in assay [2], 135 nM; in assay [3] it was 1030 nM; in assay [4], > 10000 nM.

In the case of `Cc1cc([C@@H](C)Nc2ccccc2C(=O)O)c2nc(N3CCCCC3)c(C)c(=O)n2c1` [Example 10-74, (R)-2-((1-(3,7-dimethyl-4-oxo-2-(piperidin-1-yl)-4H-pyrido[1,2-a]pyrimidin-9-yl)ethyl)amino)benzoic acid], the half-inhibitory concentration (IC50) in assay [1] is 3.23 nM; in assay [2] it was 120 nM; in assay [3], 1460 nM; in assay [4] it was > 10000 nM.

Consider `Cc1cc([C@@H](C)Nc2ccccc2C(=O)O)c2nc(N3CCCCC3)c(C#N)c(=O)n2c1` [Example 10-99, (R)-2-((1-(3-cyano-7-methyl-4-oxo-2-(piperidin-1-yl)-4H-pyrido[1,2-a]pyrimidin-9-yl)ethyl)amino)benzoic acid], for which the IC50 was 0.978 nM in assay [1], 86.2 nM in assay [2], 2260 nM in assay [3] and 9940 nM in assay [4].

For orientation: IC50 means the midpoint of a concentration-inhibition curve.
